Values quoted from earlier work in patent publication US11622994B2, “Therapy for vitiligo” (Clinuvel Pharmaceuticals Limited, priority 2008, dated 2023).

Key:
frog skin = frog skin bioassay; versus native alpha-MSH
[1] = tested on: cultured human keratinocytes; settings: versus native alpha-MSH

Nle^4-D-Phe^7-alpha-MSH
potency relative to the native hormone at inducing pigmentation (frog skin): 10 to 1,000 fold
potency relative to the native hormone at inducing pigmentation [1]: 10 to 1,000 fold
melanin synthesis (human volunteers): can induce melanin synthesis
